Reference: US20260193272A1, “SELENIUM CONTAINING HETEROCYCLE COMPOUNDS AND USE THEREOF” (HELIOS HUAMING BIOPHARMA CO., LTD., priority 2022, published 2026)

Target: T1, PAD4 enzyme (Homo sapiens, UniProt Q9UM07)
T1 construct: PAD4 enzyme was diluted to 30 nM in Assay Buffer
Experiment: In-vitro measurement for enzymatic PAD4 citrullination inhibition activity (ammonia release)
Type: biochemical
Details: read-out: IC50 of inhibition enzymatic activity of PAD4 (Colorimetric assays, Nature Chemical Biology, 2015, 11: 189-191)
Experimental: Citrullination was detected via ammonia release based on published methodology (Nature Chemical Biology, 2015, 11: 189-191).
PAD4 enzyme was diluted to 30 nM in Assay Buffer (100 mM HEPES, 50 mM NaCl, 2 mM DTT, 0.6 mg/ml BSA, pH 8) and added to wells containing various concentrations of compound or DMSO vehicle (0.8% final) in a high-volume black 96-well plate (Greiner). Following a 60-min preincubation at 27° C., the reaction was initiated by the addition of substrate (3 mM BAEE in 100 mM HEPES, 50 mM NaCl, […] CaCl2, 2 mM DTT, pH 8). The reaction was stopped after 90 min by the addition of stop/detection buffer containing 50 mM EDTA, 2.6 mM o-phthalaldehyde and 2.6 mM DTT. Assays were incubated at 27° C. for 120 min before measuring fluorescence (λex 410/λem 476) on an Envision plate reader (PerkinElmer). After which IC50 values were calculated using GraphPad Prism 8.0.

T1 sequence (Q9UM07 whole entry): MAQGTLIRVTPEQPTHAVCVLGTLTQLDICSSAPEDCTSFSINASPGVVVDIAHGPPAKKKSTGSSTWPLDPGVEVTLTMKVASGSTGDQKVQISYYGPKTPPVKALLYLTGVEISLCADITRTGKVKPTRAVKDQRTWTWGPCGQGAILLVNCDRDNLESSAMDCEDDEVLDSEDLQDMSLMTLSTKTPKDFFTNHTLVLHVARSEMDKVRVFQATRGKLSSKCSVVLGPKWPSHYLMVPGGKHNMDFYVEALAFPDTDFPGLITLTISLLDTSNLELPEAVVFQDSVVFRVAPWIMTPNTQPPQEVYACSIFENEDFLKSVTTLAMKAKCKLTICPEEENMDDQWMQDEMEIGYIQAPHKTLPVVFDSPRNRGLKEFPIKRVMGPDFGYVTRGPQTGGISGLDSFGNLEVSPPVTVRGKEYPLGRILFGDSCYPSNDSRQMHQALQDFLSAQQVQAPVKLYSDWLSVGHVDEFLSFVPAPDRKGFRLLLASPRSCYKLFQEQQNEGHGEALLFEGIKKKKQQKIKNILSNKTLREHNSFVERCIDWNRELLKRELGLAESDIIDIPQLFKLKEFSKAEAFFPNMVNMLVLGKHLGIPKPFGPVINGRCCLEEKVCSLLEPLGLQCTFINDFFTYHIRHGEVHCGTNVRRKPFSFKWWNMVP

Structure (SMILES) | IC50
COc1cc(C(=O)N2C[C@H](N)CC[C@@H]2C)cn2nc(-c3cc4[se]c(C)nc4n3CC3CC3)c(C)c12 [HH-67] | 100 to 500 nM
COc1cc(C(=O)N2C[C@H]3CC[C@@H]2[C@@H]3N)cn2nc(-c3cc4[se]c(C)nc4n3CC3CC3)c(C)c12 [HH-68] | 50 to 100 nM
Cc1c(-c2cc3[se]c(-c4ccccn4)nc3n2CC2CC2)nn2cc(C(=O)N3C[C@H](N)CC[C@@H]3C)ccc12 [HH-70] | 100 to 500 nM
Cc1c(-c2cc3[se]c(-c4ccccn4)nc3n2CC2CC2)nn2cc(C(=O)N3C[C@H]4CC[C@@H]3[C@@H]4N)ccc12 [HH-72] | 100 to 500 nM
Cc1nc2c(cc(-c3nc4cc(C(=O)N5C[C@H]6CC[C@@H]5[C@@H]6N)ccn4c3C)n2CC2CC2)[se]1 [HH-74] | 50 to 100 nM
Cc1nc2c(cc(-c3nc4cc(C(=O)N5C[C@H](N)CC[C@@H]5C)ccn4c3C)n2CC2CC2)[se]1 [HH-75] | ≤ 50 nM

Other lines, results leading:

IC50 | Structure (SMILES)
50 to 100 nM | COc1cc(C(=O)N2C[C@H](N)CC[C@@H]2C)cc2nc(-c3cc4[se]c(-c5ccccn5)cc4n3CC3CC3)n(C)c12 [HH-62]
100 to 500 nM | COc1cc(C(=O)N2C[C@H](N)C[C@@H](F)C2)cc2nc(-c3cc4[se]c(-c5ccccn5)cc4n3CC3CC3)n(C)c12 [HH-63]
50 to 100 nM | COc1cc(C(=O)N2C[C@H](N)C[C@@H](F)C2)cc2nc(-c3cc4cc[se]c4n3CC3CC3)n(C)c12 [HH-64]
50 to 100 nM | COc1cc(C(=O)N2C[C@H](N)CC[C@@H]2C)cc2nc(-c3cc4cc[se]c4n3CC3CC3)n(C)c12 [HH-65]
100 to 500 nM | COc1cc(C(=O)N[C@@H]2CC[C@H](C)NC2)cc2nc(-c3cc4cc[se]c4n3CC3CC3)n(C)c12 [HH-66]
50 to 100 nM | COc1cc(C(=O)N2C[C@H](N)C[C@@H](F)C2)cn2nc(-c3cc4[se]c(C)nc4n3CC3CC3)c(C)c12 [HH-69]
100 to 500 nM | Cc1c(-c2cc3[se]c(-c4ccccn4)nc3n2CC2CC2)nn2cc(C(=O)N3C[C@H](N)C[C@@H](F)C3)ccc12 [HH-71]
50 to 100 nM | Cc1nc2c(cc(-c3nc4cc(C(=O)N5C[C@H](N)C[C@@H](F)C5)ccn4c3C)n2CC2CC2)[se]1 [HH-73]
